We go through 15 compounds from patent US9902696B2, “1,4-substituted piperidine derivatives” (Cephalon, Inc., priority 2015, dated 2018).

Structures are written as SMILES. Counter-ions that a name gives are not always drawn.

For the first assay, the target named is T1, recombinant human baculovirus-expressed GST-tagged FASN (Homo sapiens, UniProt P49327).
T1 construct: GST
T1 sequence (P49327 whole entry): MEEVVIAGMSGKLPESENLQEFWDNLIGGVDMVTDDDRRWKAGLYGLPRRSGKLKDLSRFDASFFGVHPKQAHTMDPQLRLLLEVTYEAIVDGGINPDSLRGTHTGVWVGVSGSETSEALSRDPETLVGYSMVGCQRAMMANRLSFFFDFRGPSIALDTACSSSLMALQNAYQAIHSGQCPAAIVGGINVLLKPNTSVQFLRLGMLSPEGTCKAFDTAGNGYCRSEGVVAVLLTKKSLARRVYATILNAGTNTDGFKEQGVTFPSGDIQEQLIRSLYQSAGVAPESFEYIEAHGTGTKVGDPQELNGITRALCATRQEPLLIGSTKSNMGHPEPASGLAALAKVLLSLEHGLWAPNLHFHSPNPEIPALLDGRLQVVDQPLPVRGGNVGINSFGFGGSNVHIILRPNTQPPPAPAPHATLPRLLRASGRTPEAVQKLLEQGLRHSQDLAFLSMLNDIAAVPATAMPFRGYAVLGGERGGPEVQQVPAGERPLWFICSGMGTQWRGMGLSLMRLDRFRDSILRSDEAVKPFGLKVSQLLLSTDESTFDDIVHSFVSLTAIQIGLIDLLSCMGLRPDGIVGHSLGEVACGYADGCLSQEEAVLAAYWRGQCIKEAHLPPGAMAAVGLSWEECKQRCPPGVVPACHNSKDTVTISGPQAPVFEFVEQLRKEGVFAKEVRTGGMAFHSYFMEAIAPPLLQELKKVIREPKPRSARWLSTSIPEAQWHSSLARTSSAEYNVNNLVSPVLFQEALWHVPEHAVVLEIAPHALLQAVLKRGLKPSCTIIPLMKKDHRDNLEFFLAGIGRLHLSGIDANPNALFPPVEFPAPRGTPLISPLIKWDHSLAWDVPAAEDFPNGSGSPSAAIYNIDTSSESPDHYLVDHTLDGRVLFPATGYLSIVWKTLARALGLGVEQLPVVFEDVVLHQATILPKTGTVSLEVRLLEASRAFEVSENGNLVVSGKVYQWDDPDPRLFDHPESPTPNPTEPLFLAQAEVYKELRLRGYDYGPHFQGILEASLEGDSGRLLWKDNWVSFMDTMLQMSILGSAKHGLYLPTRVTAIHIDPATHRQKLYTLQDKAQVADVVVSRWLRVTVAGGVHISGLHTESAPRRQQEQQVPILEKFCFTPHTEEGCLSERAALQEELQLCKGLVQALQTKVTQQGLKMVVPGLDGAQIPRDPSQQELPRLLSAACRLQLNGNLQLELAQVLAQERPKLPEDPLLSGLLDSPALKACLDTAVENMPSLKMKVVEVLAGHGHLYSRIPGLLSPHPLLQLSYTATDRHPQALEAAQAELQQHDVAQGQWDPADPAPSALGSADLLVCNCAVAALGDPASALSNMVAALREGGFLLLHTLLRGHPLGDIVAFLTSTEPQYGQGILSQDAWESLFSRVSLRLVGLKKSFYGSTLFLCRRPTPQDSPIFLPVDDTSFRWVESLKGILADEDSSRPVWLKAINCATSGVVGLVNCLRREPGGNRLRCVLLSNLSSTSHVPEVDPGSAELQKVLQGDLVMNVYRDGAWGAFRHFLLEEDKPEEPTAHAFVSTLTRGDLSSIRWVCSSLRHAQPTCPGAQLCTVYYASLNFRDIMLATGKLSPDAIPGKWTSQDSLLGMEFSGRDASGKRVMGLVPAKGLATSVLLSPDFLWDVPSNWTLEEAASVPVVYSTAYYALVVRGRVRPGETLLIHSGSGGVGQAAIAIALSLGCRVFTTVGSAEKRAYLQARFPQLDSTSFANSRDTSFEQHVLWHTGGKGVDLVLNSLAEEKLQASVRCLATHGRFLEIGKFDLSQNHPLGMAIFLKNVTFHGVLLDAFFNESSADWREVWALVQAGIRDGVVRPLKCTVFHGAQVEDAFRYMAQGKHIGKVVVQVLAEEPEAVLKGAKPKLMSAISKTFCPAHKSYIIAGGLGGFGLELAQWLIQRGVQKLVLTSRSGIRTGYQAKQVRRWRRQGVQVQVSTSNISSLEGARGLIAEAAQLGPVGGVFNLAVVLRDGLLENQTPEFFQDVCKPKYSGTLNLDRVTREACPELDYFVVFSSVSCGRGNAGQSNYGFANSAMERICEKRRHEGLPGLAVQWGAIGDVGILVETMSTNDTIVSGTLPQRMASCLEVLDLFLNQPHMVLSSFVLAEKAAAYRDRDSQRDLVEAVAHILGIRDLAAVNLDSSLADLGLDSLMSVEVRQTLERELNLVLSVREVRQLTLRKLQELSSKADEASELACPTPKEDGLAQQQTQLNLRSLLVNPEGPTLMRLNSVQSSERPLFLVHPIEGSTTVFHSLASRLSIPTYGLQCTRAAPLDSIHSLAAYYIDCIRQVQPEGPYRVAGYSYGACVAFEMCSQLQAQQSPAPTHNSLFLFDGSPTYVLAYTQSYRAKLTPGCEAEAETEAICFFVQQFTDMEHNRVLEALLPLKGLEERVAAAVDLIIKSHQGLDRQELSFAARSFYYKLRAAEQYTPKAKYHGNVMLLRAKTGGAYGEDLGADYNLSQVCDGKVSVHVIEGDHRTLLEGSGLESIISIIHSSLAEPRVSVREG
The experiment in a line: FASN enzyme activity assay, fluorescence-based detection of CoA with CPM. Format: biochemical. The conditions noted are these: 5 nM FASN, 150 μM NADPH, 10 μM acetyl-CoA, 25 μM malonyl-CoA, 90 minutes incubation; read-out: IC50 data for Additional Compounds of Formulae I-V(a): Activity. The gist of the method: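 CoA product reacted with thiol-reactive CPM (diluted to 50 μM in 70% ethanol), read at 390/530 nm after 30 min. Preceding reaction: 90 min, 5 nM recombinant GST-FASN, 150 μM NADPH, 10 μM acetyl-CoA, 25 μM malonyl-CoA, pH 7.5 HEPES, 0.5% DMSO. IC50s fitted by nonlinear sigmoidal regression.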
Take `Cc1c(-c2ccc(OC3CCN(C(=O)NCC(C)C)CC3)cc2)ccn2ccnc12` [Example 632, N-Isobutyl-4-[4-(8-methylimidazo[1,2-a]pyridin-7-yl)phenoxy]piperidine-1-carboxamide]: the IC50 is 1 to 99 nM.

The same assay, now with this note: 5 nM FASN, 150 μM NADPH, 10 μM acetyl-CoA, 25 μM malonyl-CoA, 90 minutes incubation; read-out: IC50 data for Compounds of Formulae I-V/V(a): Activity.
As to `CCC(=O)N1CCC(Oc2ccc(-c3cc(C)c4nccn4c3)cc2)CC1` [Example 284, 1-{4-[4-(8-Methylimidazo[1,2-a]pyridin-6-yl)-phenoxy]-piperidin-1-yl}-propan-1-one], the IC50 lay in the range of 1000 to 10000 nM.

As for `CN(C)c1nccc2cc(-c3ccc(OC4CCN(C(=O)[C@H]5CCCO5)CC4)cc3)ccc12` [Example 453, {4-[4-(1-Dimethylaminoisoquinolin-6-yl)-phenoxy]-piperidin-1-yl}-(R)-tetrahyrofuran-2-yl methananone, HCl], the IC50 fell in the range of 100 to 999 nM. For `O=C(C1CC1)N1CCC(Nc2ccc(-c3cnc4ccccc4c3)cc2)CC1` [Example 527, Cyclopropyl-[4-(4-quinolin-3-yl-phenylamino)-piperidin-1-yl]-methanone, HCl], the IC50 was in the range of 1000 to 10000 nM.

In the case of `Cc1nccc2c(C)c(-c3ccc(OC4CCN(C(=O)C5CC5)CC4)cc3)ccc12` [Example 473, Cyclopropyl-[4-[4-(1,5-dimethyl-6-isoquinolyl)phenoxy]-1-piperidyl]methanone HCl], the IC50 lay within 100 to 999 nM.

For `CCC(=O)N1CCC(Oc2ccc(-c3cnc4ccccc4c3)c(Cl)c2)CC1` [Example 203, 1-[4-(3-Chloro-4-quinolin-3-yl-phenoxy)-piperidin-1-yl]-propan-1-one], the IC50 was in the range of 1 to 99 nM. With `CCC(=O)N1CCC(Oc2ccc(-c3ccc(Cl)c(Cl)c3)cc2)CC1` [Example 500, 1-[4-(3′,4′-Dichlorobiphenyl-4-yloxy)-piperidin-1-yl]-propan-1-one], the IC50 lay within 1000 to 10000 nM. Same read-out and setting: to `CCC(=O)N1CCC(Oc2ccc(-c3ccnc(Nc4ccccc4)c3)cc2)CC1` [Example 404, 1-{4-[4-(2-Phenylaminopyridin-4-yl)-phenoxy]-piperidin-1-yl}-propan-1-one] belongs 1000 to 10000 nM; to `Cc1cc(-c2ccc(OC3CCN(C(=O)[C@H]4CCCO4)CC3)cc2)c2cccnc2c1` [Example 353, (R)-(4-(4-(7-Methylquinolin-5-yl)phenoxy)piperidin-1-yl)(tetrahydrofuran-2-yl)methanone], 1 to 99 nM.

With `CCC(=O)N1CCC(Oc2ccc(-c3ccc4cccnc4c3OC)cc2)CC1` [Example 273, 1-{4-[4-(8-Methoxyquinolin-7-yl)-phenoxy]-piperidin-1-yl}-propan-1-one, TFA salt], the IC50 is 1 to 99 nM. The same measure, in the same setting: the same measure for `Cc1c(-c2ccc(O[C@H]3C[C@H]4CC[C@@H](C3)N4C(=O)C3CC3)cc2)ccc2cccnc12` [Example 370, Cyclopropyl-{endo-3-[4-(8-methylquinolin-7-yl)-phenoxy]-8-aza-bicyclo-[3.2.1]oct-8-yl}-methanone, HCl]: 100 to 999 nM; for `CC(C)C(=O)N1CCC(Oc2ncc(-c3cnc4ccccc4c3)cn2)CC1` [Example 138, 2-Methyl-1-[4-(5-quinolin-3-yl-pyrimidin-2-yloxy)-piperidin-1-yl]-propan-1-one, 2HCl]: 1000 to 10000 nM; for `COCCCOc1c(-c2ccc(OC3CCN(C(=O)[C@H]4CCCO4)CC3)cc2)ccc2cccnc12` [Example 187, [4-[4-[8-(3-Methoxypropoxy)-7-quinolyl]phenoxy]-1-piperidyl]-[(2R)-tetrahydrofuran-2-yl]methanone, HCl]: 1 to 99 nM.

For the compound `Cc1nccc2cc(-c3ccc(OC4CCN(C(=O)[C@H]5CCCO5)CC4)cc3)ccc12` [Example 431, {4-[4-(1-Methylisoquinolin-6-yl)-phenoxy]-piperidin-1-yl}-(R)-tetrahydro-furan-2-yl-methanone], the IC50 lay in the range of 1 to 99 nM. The same measure, in the same setting: to `COc1cc(-c2cnc3ccccc3c2)ccc1OC1CCN(C(=O)C(C)C)CC1` [Example 197, 1-[4-(2-Methoxy-4-quinolin-3-yl-phenoxy)-piperidin-1-yl]-2-methyl-propan-1-one] belongs 1000 to 10000 nM.
